{
  "source": "patent US20220281848A1",
  "about": "“PYRAZOLE-SUBSTITUTED PYRROLIDINONES AS HERBICIDES” (FMC Corporation, priority 2019, published 2022)",
  "tested_on": "plants",
  "experiment": "Test D pre-emergence, other plants of Tables D1 and D3",
  "type": "in vivo",
  "settings": "pre-emergence, 100=total damage, 0=no damage",
  "protocol": "A formulation containing 50 g/L of the test chemical was prepared by dissolving the active ingredient in a mixture of organic solvents and emulsifier, details of which are provided in the table. This formulation was then mixed with a small, variable amount of acetone to aid dissolution, before addition of a 0.2% v/v aqueous solution of an adjuvant, as the aqueous diluent, to form an aqueous spray solution which contains a predetermined concentration of the active ingredient.\nThis aqueous spray solution was then sprayed onto plants including maize and wheat that had been seed treated with a herbicide safener, after one day's cultivation (for pre-emergence) or after about 12 days' cultivation (for post-emergence). The plants were grown from seeds sown in standard soil, placed in a glasshouse under controlled conditions (at 24/18° C. or 20/16° C., day/night; 16 h light; 65% humidity). After spray application the plants were then grown in a glasshouse under the same conditions and watered twice daily. After 15 d for post-emergence and 20 DAA for pre-emergence the test was evaluated (100=total damage to plant; 0=no damage to plant).",
  "data": [
    {"smiles": "CN1CC(c2cc(C(F)(F)F)n(C)n2)C(C(=O)Nc2cccc(F)c2F)C1=O", "note": "(racemic) [Compound 3]", "values": [
      {"measurement": "damage to plant, ALOMY", "setting": "rate 15, 20 DAA", "result": 0},
      {"measurement": "damage to plant, AVEFA", "setting": "rate 15, 20 DAA", "result": 0},
      {"measurement": "damage to plant, BEAVA", "setting": "rate 15, 20 DAA", "result": 0},
      {"measurement": "damage to plant, BROTE", "setting": "rate 15, 20 DAA", "result": 0},
      {"measurement": "damage to plant, BRSNN", "setting": "rate 15, 20 DAA", "result": 0},
      {"measurement": "damage to plant, CHEAL", "setting": "rate 15, 20 DAA", "result": 0},
      {"measurement": "damage to plant, GALAP", "setting": "rate 15, 20 DAA", "result": 0},
      {"measurement": "damage to plant, HORVW", "setting": "rate 15, 20 DAA", "result": 0},
      {"measurement": "damage to plant, KCHSC", "setting": "rate 15, 20 DAA", "result": 0},
      {"measurement": "damage to plant, LOLPE", "setting": "rate 15, 20 DAA", "result": 0},
      {"measurement": "damage to plant, POAAN", "setting": "rate 15, 20 DAA", "result": 0},
      {"measurement": "damage to plant, POLCO", "setting": "rate 15, 20 DAA", "result": 0},
      {"measurement": "damage to plant, SINAR", "setting": "rate 15, 20 DAA", "result": 0},
      {"measurement": "damage to plant, STEME", "setting": "rate 15, 20 DAA", "result": 0},
      {"measurement": "damage to plant, VERPE", "setting": "rate 15, 20 DAA", "result": 0},
      {"measurement": "damage to plant, ALOMY", "setting": "rate 30, 20 DAA", "result": 0},
      {"measurement": "damage to plant, AVEFA", "setting": "rate 30, 20 DAA", "result": 0},
      {"measurement": "damage to plant, BEAVA", "setting": "rate 30, 20 DAA", "result": 0},
      {"measurement": "damage to plant, BROTE", "setting": "rate 30, 20 DAA", "result": 0},
      {"measurement": "damage to plant, BRSNN", "setting": "rate 30, 20 DAA", "result": 0},
      {"measurement": "damage to plant, CHEAL", "setting": "rate 30, 20 DAA", "result": 0},
      {"measurement": "damage to plant, GALAP", "setting": "rate 30, 20 DAA", "result": 0},
      {"measurement": "damage to plant, HORVW", "setting": "rate 30, 20 DAA", "result": 0},
      {"measurement": "damage to plant, KCHSC", "setting": "rate 30, 20 DAA", "result": 0},
      {"measurement": "damage to plant, LOLPE", "setting": "rate 30, 20 DAA", "result": 0},
      {"measurement": "damage to plant, POAAN", "setting": "rate 30, 20 DAA", "result": 20},
      {"measurement": "damage to plant, POLCO", "setting": "rate 30, 20 DAA", "result": 0},
      {"measurement": "damage to plant, SINAR", "setting": "rate 30, 20 DAA", "result": 0},
      {"measurement": "damage to plant, STEME", "setting": "rate 30, 20 DAA", "result": 0},
      {"measurement": "damage to plant, VERPE", "setting": "rate 30, 20 DAA", "result": 0},
      {"measurement": "damage to plant, ALOMY", "setting": "rate 60, 20 DAA", "result": 0},
      {"measurement": "damage to plant, AVEFA", "setting": "rate 60, 20 DAA", "result": 0},
      {"measurement": "damage to plant, BEAVA", "setting": "rate 60, 20 DAA", "result": 0},
      {"measurement": "damage to plant, BROTE", "setting": "rate 60, 20 DAA", "result": 0},
      {"measurement": "damage to plant, BRSNN", "setting": "rate 60, 20 DAA", "result": 0},
      {"measurement": "damage to plant, CHEAL", "setting": "rate 60, 20 DAA", "result": 0},
      {"measurement": "damage to plant, GALAP", "setting": "rate 60, 20 DAA", "result": 0},
      {"measurement": "damage to plant, HORVW", "setting": "rate 60, 20 DAA", "result": 0},
      {"measurement": "damage to plant, KCHSC", "setting": "rate 60, 20 DAA", "result": 0},
      {"measurement": "damage to plant, LOLPE", "setting": "rate 60, 20 DAA", "result": 0},
      {"measurement": "damage to plant, POAAN", "setting": "rate 60, 20 DAA", "result": 20},
      {"measurement": "damage to plant, POLCO", "setting": "rate 60, 20 DAA", "result": 0},
      {"measurement": "damage to plant, SINAR", "setting": "rate 60, 20 DAA", "result": 0},
      {"measurement": "damage to plant, STEME", "setting": "rate 60, 20 DAA", "result": 0},
      {"measurement": "damage to plant, VERPE", "setting": "rate 60, 20 DAA", "result": 0},
      {"measurement": "damage to plant, ALOMY", "setting": "rate 130, 20 DAA", "result": 0},
      {"measurement": "damage to plant, AVEFA", "setting": "rate 130, 20 DAA", "result": 0},
      {"measurement": "damage to plant, BEAVA", "setting": "rate 130, 20 DAA", "result": 0},
      {"measurement": "damage to plant, BROTE", "setting": "rate 130, 20 DAA", "result": 0},
      {"measurement": "damage to plant, BRSNN", "setting": "rate 130, 20 DAA", "result": 0},
      {"measurement": "damage to plant, CHEAL", "setting": "rate 130, 20 DAA", "result": 0},
      {"measurement": "damage to plant, GALAP", "setting": "rate 130, 20 DAA", "result": 0},
      {"measurement": "damage to plant, HORVW", "setting": "rate 130, 20 DAA", "result": 0},
      {"measurement": "damage to plant, KCHSC", "setting": "rate 130, 20 DAA", "result": 0},
      {"measurement": "damage to plant, LOLPE", "setting": "rate 130, 20 DAA", "result": 0},
      {"measurement": "damage to plant, POAAN", "setting": "rate 130, 20 DAA", "result": 40},
      {"measurement": "damage to plant, POLCO", "setting": "rate 130, 20 DAA", "result": 0},
      {"measurement": "damage to plant, SINAR", "setting": "rate 130, 20 DAA", "result": 0},
      {"measurement": "damage to plant, STEME", "setting": "rate 130, 20 DAA", "result": 0},
      {"measurement": "damage to plant, VERPE", "setting": "rate 130, 20 DAA", "result": 0},
      {"measurement": "damage to plant, ALOMY", "setting": "rate 250, 20 DAA", "result": 0},
      {"measurement": "damage to plant, AVEFA", "setting": "rate 250, 20 DAA", "result": 0},
      {"measurement": "damage to plant, BEAVA", "setting": "rate 250, 20 DAA", "result": 0},
      {"measurement": "damage to plant, BROTE", "setting": "rate 250, 20 DAA", "result": 0},
      {"measurement": "damage to plant, BRSNN", "setting": "rate 250, 20 DAA", "result": 0},
      {"measurement": "damage to plant, CHEAL", "setting": "rate 250, 20 DAA", "result": 0},
      {"measurement": "damage to plant, GALAP", "setting": "rate 250, 20 DAA", "result": 0},
      {"measurement": "damage to plant, HORVW", "setting": "rate 250, 20 DAA", "result": 0},
      {"measurement": "damage to plant, KCHSC", "setting": "rate 250, 20 DAA", "result": 0},
      {"measurement": "damage to plant, LOLPE", "setting": "rate 250, 20 DAA", "result": 0},
      {"measurement": "damage to plant, POAAN", "setting": "rate 250, 20 DAA", "result": 50},
      {"measurement": "damage to plant, POLCO", "setting": "rate 250, 20 DAA", "result": 0},
      {"measurement": "damage to plant, SINAR", "setting": "rate 250, 20 DAA", "result": 0},
      {"measurement": "damage to plant, STEME", "setting": "rate 250, 20 DAA", "result": 0},
      {"measurement": "damage to plant, VERPE", "setting": "rate 250, 20 DAA", "result": 0},
      {"measurement": "damage to plant, ALOMY", "setting": "rate 500, 20 DAA", "result": 20},
      {"measurement": "damage to plant, AVEFA", "setting": "rate 500, 20 DAA", "result": 30},
      {"measurement": "damage to plant, BEAVA", "setting": "rate 500, 20 DAA", "result": 0},
      {"measurement": "damage to plant, BROTE", "setting": "rate 500, 20 DAA", "result": 0},
      {"measurement": "damage to plant, BRSNN", "setting": "rate 500, 20 DAA", "result": 0},
      {"measurement": "damage to plant, CHEAL", "setting": "rate 500, 20 DAA", "result": 0},
      {"measurement": "damage to plant, GALAP", "setting": "rate 500, 20 DAA", "result": 0},
      {"measurement": "damage to plant, HORVW", "setting": "rate 500, 20 DAA", "result": 20},
      {"measurement": "damage to plant, KCHSC", "setting": "rate 500, 20 DAA", "result": 0},
      {"measurement": "damage to plant, LOLPE", "setting": "rate 500, 20 DAA", "result": 50},
      {"measurement": "damage to plant, POAAN", "setting": "rate 500, 20 DAA", "result": 60},
      {"measurement": "damage to plant, POLCO", "setting": "rate 500, 20 DAA", "result": 0},
      {"measurement": "damage to plant, SINAR", "setting": "rate 500, 20 DAA", "result": 0},
      {"measurement": "damage to plant, STEME", "setting": "rate 500, 20 DAA", "result": 30},
      {"measurement": "damage to plant, VERPE", "setting": "rate 500, 20 DAA", "result": 60}
    ]}
  ]
}
